Legend:
[1] = molecular target: T1, GABAAR β3 homopentamer (GABAAR-β3cryst) (Homo sapiens, UniProt P28472, DEL333-446/INS332SQPARAA); assay: X-ray co-crystal structure; format: cell-based
T1 sequence (P28472 with tags, fused parts or gaps INS332SQPARAA): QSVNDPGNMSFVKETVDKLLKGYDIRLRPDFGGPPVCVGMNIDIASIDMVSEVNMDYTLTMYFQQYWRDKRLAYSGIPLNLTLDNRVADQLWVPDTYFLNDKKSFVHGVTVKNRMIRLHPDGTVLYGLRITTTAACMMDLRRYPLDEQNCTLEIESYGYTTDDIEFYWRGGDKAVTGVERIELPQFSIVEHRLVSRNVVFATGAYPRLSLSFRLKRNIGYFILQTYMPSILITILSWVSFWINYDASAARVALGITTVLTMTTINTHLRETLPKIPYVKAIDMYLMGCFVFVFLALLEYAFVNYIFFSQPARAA
T1 sequence (P28472 447-473): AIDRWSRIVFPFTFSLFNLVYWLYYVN

[2] = molecular target: T1, GABAAR β3 homopentamer (GABAAR-β3cryst); assay: thermostabilisation of purified receptor; format: binding
[3] = molecular target: T1, GABAAR β3 homopentamer (GABAAR-β3cryst); assay: thermostabilisation of purified receptor; format: binding; remark: listed apart in the source

SMILES: N=C(N)c1ccccc1 [benzamidine]
- EC50 [1]: 61 ± 12 µM

SMILES: NCCc1c[nH]cn1 [histamine]
- EC50 [2]: 400 ± 150 µM

SMILES: N#Cc1nn(-c2c(Cl)cc(C(F)(F)F)cc2Cl)c(N)c1[S+]([O-])C(F)(F)F (stereo not drawn) [fipronil]
- EC50 [3]: 0.026 ± 0.005 µM
